In US20100166659A1, “USE OF CYANINE DYES FOR THE DIAGNOSIS OF PROLIFERATIVE DISEASES” (priority 2005, published 2010):
Read-outs that look alike come from different tables or passages of the source.

Tests used:
[1] = Determination of fluorescence quantum yield of tricarbocyanine dyes; format: physicochemical; conditions: 2 μM
Description: Compounds 6-4, 5-36, 5-29, 5-41, NIR96009, NIR96005 and ICG (see Table 1) were tested for their fluorescence quantum yields at a concentration of 2 μM in either water or plasma. It is apparent from Table 2 that a substitution in the middle of the tricarbocyanine dye improves fluorescence quantum yield in both media.

[2] = remark *see Ref. (Licha et al. 1996), cited from earlier work
[3] = system: tumors; conditions: cited from earlier work

Compound | Fluorescence max. (nm) In plasma [1] [nm] | Fluorescence quantum yield (%) In plasma [1] [%] | Fluorescence quantum yield (%) In water [1] [%] | Fluorescence max. (nm) In plasma [2] [nm] | Fluorescence quantum yield (%) In plasma [2] [%] | Fluorescence quantum yield (%) In water [2] [%] | other results
CC1(C)C(/C=C/C=C(/C=C/C=C2/N(CCCCS(=O)(=O)O)c3ccc(S(=O)(=O)[O-])cc3C2(C)C)CCS(=O)(=O)O)=[N+](CCCCS(=O)(=O)O)c2ccc(S(=O)(=O)O)cc21 [Compound 5-29] | 813 | 9.8 | 8.2 | – | – | – | –
CC(/C=C/C=C1/N(CCS(=O)(=O)O)c2ccc(S(=O)(=O)[O-])cc2C1(C)C)=C\C=C\C1=[N+](CCS(=O)(=O)O)c2ccc(S(=O)(=O)O)cc2C1(C)C [Compound 5-36] | – | – | 12 | – | – | – | –
CC1(C)C(/C=C/C2=C(c3ccccc3)C(=C/C=C3/N(CCCCS(=O)(=O)O)c4ccc(S(=O)(=O)[O-])cc4C3(C)C)/CCC2)=[N+](CCCCS(=O)(=O)O)c2ccc(S(=O)(=O)O)cc21 [Compound 5-41] | 799 | 19 | 10 | – | – | – | –
CC1(C)C(/C=C/C=C/C=C/C=C2/N(CCCCS(=O)(=O)O)c3ccc4ccccc4c3C2(C)C)=[N+](CCCCS(=O)(=O)[O-])c2ccc3ccccc3c21 [ICG, indocyanine green] | – | – | – | 829 | 3 | 1 | Detection limit, tumor size ([3]; prior-art dye): 1 cm
CC1(C)C(/C=C/C=C/C=C/C=C2/N(CCCCS(=O)(=O)O)c3ccc(C(=O)O)cc3C2(C)C)=[N+](CCCCS(=O)(=O)[O-])c2ccc(C(=O)O)cc21 [NIR96005] | – | – | – | 795 | 7.2 | 5.6 | –
CC1(C)C(/C=C/C=C/C=C/C=C2/N(CCCCS(=O)(=O)O)c3ccc(C(=O)NC(CC(=O)O)C(=O)O)cc3C2(C)C)=[N+](CCCCS(=O)(=O)[O-])c2ccc(C(=O)NC(CC(=O)O)C(=O)O)cc21 (stereo not drawn) [NIR96009] | – | – | – | 786 | 7.8 | 5.8 | –
CC(/C=C/C=C1/N(CCS(=O)(=O)O)c2ccc(S(=O)(=O)[O-])cc2C1(C)C)=C\C=C\C1=[N+](CCS(=O)(=O)O)c2ccc(S(=O)(=O)O)cc2C1(C)C [SF64] | 787 | 17 | 11 | – | – | – | –
indocyanine green [ICG] | – | – | – | – | – | – | Size of ductal breast carcinomas that could be detected ([3]; DOT, 0.25 mg/kg body weight): ≥ 1 cm
